Structures can show the parent of a compound that is named as a salt. Where two headings read alike, the source gives them in different places. One block for each compound: values may come before it.
Target: T1, protein farnesyltransferase (Rattus norvegicus, UniProt Q02293+Q04631)
T1 construct: The enzyme is purified according to Reiss, Y., et al., Cell, 62: 81-88 (1990), utilizing steps one through three; from tissue; host or cells: rat brain
Test: Inhibition of farnesyltransferase (scintillation proximity assay, rat brain enzyme, biotin-K Ras B fragment substrate)
Type: biochemical
Details: for % inhibition of farnesyltransferase at 1 × 10^-6 M / inhibition at 1 µM: 1 × 10^-6 M (Table 2); for inhibition at 1 µM: read-out: % inhibition of farnesyltransferase at 1 × 10^-6 M; for % inhibition of farnesyltransferase at 1 × 10^-5 M: 1 × 10^-5 M (Table 1)
Method in brief: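 Enzyme from rat brain, partly purified (steps one to three), assayed by SPA kit using 0.1 mM final biotin-K Ras B peptide as prenyl acceptor rather than biotin-lamin. Activity given as percent inhibition.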

T1 sequence (Q02293 whole entry, one chain of several): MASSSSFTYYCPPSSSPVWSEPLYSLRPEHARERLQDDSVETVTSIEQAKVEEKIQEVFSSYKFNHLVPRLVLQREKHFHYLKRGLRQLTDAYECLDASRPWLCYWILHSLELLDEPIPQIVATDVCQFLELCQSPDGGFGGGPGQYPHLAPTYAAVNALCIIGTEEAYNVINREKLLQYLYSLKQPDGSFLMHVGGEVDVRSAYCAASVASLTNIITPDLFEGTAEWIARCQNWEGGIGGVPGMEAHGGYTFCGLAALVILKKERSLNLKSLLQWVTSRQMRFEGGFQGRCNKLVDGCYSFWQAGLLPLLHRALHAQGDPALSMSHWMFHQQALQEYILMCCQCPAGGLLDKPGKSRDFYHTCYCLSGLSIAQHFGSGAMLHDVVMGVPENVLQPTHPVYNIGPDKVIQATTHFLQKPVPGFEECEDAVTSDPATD

% inhibition of farnesyltransferase at 1 × 10^-6 M: 91%
Structure (SMILES): CSCC[C@H](NC(=O)c1ccc(OCCOc2ccccc2)cc1-c1ccccc1C)C(=O)O [Example 561]

Structure (SMILES): CSCC[C@H](NC(=O)c1ccc(COCc2ccccc2C(C)C)cc1-c1ccccc1C)C(=O)[O-].[Li+] [Example 938]
% inhibition of farnesyltransferase at 1 × 10^-8 M (1 × 10^-8 M (Table 4)): 61%

Structure (SMILES): CSCC[C@H](NC(=O)c1ccc(COCc2ccc(C(C)C)cc2)cc1-c1ccccc1C)C(=O)[O-].[Li+] [Example 940]
% inhibition of farnesyltransferase at 1 × 10^-7 M (1 × 10^-7 M (Table 3)): 92%

% inhibition of farnesyltransferase at 1 × 10^-6 M: 31%
Structure (SMILES): CSCC[C@H](NC(=O)c1ccc(NC(=O)C2CCC(=O)N2)cc1-c1ccccc1)C(=O)O (stereo partly drawn) [Example 202]

inhibition at 1 µM: 98%
Structure (SMILES): CSCC[C@H](NC(=O)c1ccc(CN(C)C(C)(C)Cc2ccccc2)cc1-c1ccccc1C)C(=O)O [Example 309]

% inhibition of farnesyltransferase at 1 × 10^-7 M (1 × 10^-7 M (Table 3)): 99%
Structure (SMILES): CSCC[C@H](NC(=O)c1ccc(CNC(CC2CCCCC2)CC2CCCCC2)cc1-c1ccccc1C)C(=O)O [Example 524]

% inhibition of farnesyltransferase at 1 × 10^-6 M: 92%
Structure (SMILES): CSCC[C@H](NC(=O)c1ccc(CN(Cc2ccccc2)c2ccccc2C(C)=O)cc1-c1ccccc1C)C(=O)O [Example 844]

inhibition at 0.01 µM (read-out: % inhibition of farnesyltransferase at 1 × 10^-8 M, 1 × 10^-8 M (Table 4)): 60%
Structure (SMILES): CSCC[C@H](NC(=O)c1ccc(/C=C/c2ccc(Oc3cccc(Cl)c3)cc2)cc1-c1ccccc1C)C(=O)O [Example 858, N-[4-(2-(4-(3-chlorophenoxy)phenyl)ethen-1-yl)-2-(2-methylphenyl)benzoyl]methionine]

Structure (SMILES): CSCC[C@H](NC(=O)c1ccc(COC(Cc2ccccc2)Cc2ccccc2)cc1-c1ccccc1C)C(=O)[O-].[Li+] [Example 522]
% inhibition of farnesyltransferase at 1 × 10^-7 M (1 × 10^-7 M (Table 3)): 93%

% inhibition of farnesyltransferase at 1 × 10^-5 M: 58%
Structure (SMILES): CSCC[C@H](NC(=O)c1ccc(NC(=O)Cc2ccccc2[N+](=O)[O-])cc1-c1ccccc1)C(=O)O [Example 757]

Structure (SMILES): CSCC[C@H](NC(=O)c1ccc(COCc2oc(-c3ccc(Cl)cc3)c(Cl)c2Cl)cc1-c1ccccc1C)C(=O)[O-].[Li+] [Example 829]
% inhibition of farnesyltransferase at 1 × 10^-8 M (1 × 10^-8 M (Table 4)): 92%

% inhibition of farnesyltransferase at 1 × 10^-5 M: 43%
Structure (SMILES): CSCC[C@H](NC(=O)c1ccc(CNCCC2CCCCC2)cc1-c1ccccc1)C(=O)O [Example 663]

inhibition at 0.01 µM (read-out: % inhibition at 0.01 μM (**), Table 6, ** = 0.01 μM (footnote), title prints 0.01 mM): 79%
Structure (SMILES): CCCCP(=O)(Cc1ccc(C(=O)N[C@@H](CCSC)C(=O)O)c(-c2ccccc2C)c1)CC1CCCCC1 (stereo partly drawn) [Example 1213, N-[4-((Cylohexylmethyl)butyl(oxophosphinyl)methyl)-2-(2-methylphenyl)benzoyl]methionine]

% inhibition of farnesyltransferase at 1 × 10^-6 M: 55%
Structure (SMILES): CSCC[C@H](NC(=O)c1ccc(CN(Cc2ccccc2)Cc2ccccc2)cc1-c1ccccc1)C(=O)O [Example 834]

% inhibition of farnesyltransferase at 1 × 10^-6 M: 72%
Structure (SMILES): CSCC[C@H](NC(=O)c1ccc(CNCCN(C(C)C)C(C)C)cc1-c1ccccc1)C(=O)O [Example 636]

% inhibition of farnesyltransferase at 1 × 10^-5 M: 47%
Structure (SMILES): COc1cc(I)c(C(=O)Nc2ccc(C(=O)N[C@@H](CCSC)C(=O)O)c(-c3ccccc3)c2)cc1OC [Example 756]

% inhibition of farnesyltransferase at 1 × 10^-6 M: 43%
Structure (SMILES): CSCC[C@H](NC(=O)c1ccc(CNCC(O)CO)cc1-c1ccccc1)C(=O)O (stereo partly drawn) [Example 632]

Structure (SMILES): CSCC[C@H](NC(=O)c1ccc(CCc2ccc(C3CCCCC3)cc2)cc1-c1ccccc1C)C(=O)O [Example 461, N-[4-(2-(4-cyclohexylphenyl)ethyl)-2-(2-methylphenyl)benzoyl]methionine lithium salt]
inhibition at 0.1 µM (read-out: % inhibition of farnesyltransferase at 1 × 10^-7 M, 1 × 10^-7 M (Table 3)): 93%

Structure (SMILES): CSCC[C@H](NC(=O)c1ccc(COCc2ccc(Cl)cc2)cc1-c1ccccc1C)C(=O)[O-].[Li+] [Example 933]
% inhibition of farnesyltransferase at 1 × 10^-7 M (1 × 10^-7 M (Table 3)): 91%

inhibition at 1 µM: 72%
Structure (SMILES): CSCC[C@H](NC(=O)c1ccc(CN(C(C)C)C2(Cc3ccccc3)CCCC2)cc1-c1ccccc1C)C(=O)O [Example 343]

Structure (SMILES): CSCC[C@H](NC(=O)c1ccc(COCc2cnc(-c3ccc(Cl)cc3)o2)cc1-c1ccccc1C)C(=O)[O-].[Li+] [Example 894]
% inhibition of farnesyltransferase at 1 × 10^-7 M (1 × 10^-7 M (Table 3)): 89%

% inhibition of farnesyltransferase at 1 × 10^-6 M: 57%
Structure (SMILES): CSCC[C@H](NC(=O)c1ccc(NC(=O)[C@@H](N)COCc2ccccc2)cc1-c1ccccc1)C(=O)O [Example 503]

% inhibition of farnesyltransferase at 1 × 10^-7 M (1 × 10^-7 M (Table 3)): 63%
Structure (SMILES): COc1ccccc1N(Cc1ccccc1)Cc1ccc(C(=O)N[C@@H](CCSC)C(=O)O)c(-c2ccccc2C)c1 [Example 839]

% inhibition of farnesyltransferase at 1 × 10^-5 M: 73%
Structure (SMILES): CSCC[C@H](NC(=O)c1ccc(CNc2cccc(OC(F)(F)F)c2)cc1-c1ccccc1)C(=O)O [Example 678]

% inhibition of farnesyltransferase at 1 × 10^-5 M: 55%
Structure (SMILES): COc1cc2c(cc1OC)C(CNCc1ccc(C(=O)N[C@@H](CCSC)C(=O)O)c(-c3ccccc3)c1)=CC(C1CCCCC1)C2 (stereo partly drawn) [Example 659]

% inhibition of farnesyltransferase at 1 × 10^-8 M (1 × 10^-8 M (Table 4)): 52%
Structure (SMILES): CCSC[C@H](CC1CCCCC1)N(C=O)Cc1ccc(C(=O)N[C@@H](CCSC)C(=O)O)c(-c2ccccc2C)c1 [Example 946]

Structure (SMILES): CSCC[C@H](NC(=O)c1ccc(COCCc2ccc(-c3ccc(Cl)cc3)o2)cc1-c1ccccc1C)C(=O)[O-].[Li+] [Example 536]
% inhibition of farnesyltransferase at 1 × 10^-7 M (1 × 10^-7 M (Table 3)): 79%

% inhibition of farnesyltransferase at 1 × 10^-7 M (1 × 10^-7 M (Table 3)): 72%
Structure (SMILES): CSCC[C@H](NC(=O)c1ccc(COc2ccc3ccccc3c2)cc1-c1ccccc1C)C(=O)O [Example 573]

% inhibition of farnesyltransferase at 1 × 10^-5 M: 48%
Structure (SMILES): CSCC[C@H](NC(=O)c1ccc(CNc2ccccc2N(C)C)cc1-c1ccccc1)C(=O)O [Example 672]

Structure (SMILES): CSCC[C@H](NC(=O)c1ccc(COCCc2cccc3ccccc23)cc1-c1ccccc1C)C(=O)[O-].[Li+] [Example 592]
% inhibition of farnesyltransferase at 1 × 10^-7 M (1 × 10^-7 M (Table 3)): 93%

% inhibition of farnesyltransferase at 1 × 10^-8 M (1 × 10^-8 M (Table 4)): 92%
Structure (SMILES): CC[C@H](CC1CCCCC1)NCc1ccc(C(=O)N[C@@H](CCSC)C(=O)O)c(-c2ccccc2C)c1 [Example 614]

inhibition at 1 µM: 98%
Structure (SMILES): CSCC[C@H](NC(=O)c1ccc(CN(C2CC2)C2(Cc3ccccc3)CC2)cc1-c1ccccc1C)C(=O)O [Example 323]

inhibition at 1 µM: 63%
Structure (SMILES): CSCC[C@H](NC(=O)c1ccc(CN(C2CC2)C(C)(C)CC2CCCCC2)cc1-c1ccccc1C)C(=O)O [Example 316]

% inhibition of farnesyltransferase at 1 × 10^-8 M (1 × 10^-8 M (Table 4)): 96%
Structure (SMILES): CSCC[C@H](NC(=O)c1ccc(CN(CCC2CCCCC2)S(=O)(=O)c2ccccc2)cc1-c1ccccc1C)C(=O)O [Example 612]

Structure (SMILES): CSCC[C@H](NC(=O)c1ccc(COCc2cnc(C(C)(C)C)s2)cc1-c1ccccc1C)C(=O)[O-].[Li+] [Example 895]
% inhibition of farnesyltransferase at 1 × 10^-7 M (1 × 10^-7 M (Table 3)): 92%

Structure (SMILES): CSCC[C@H](NC(=O)c1ccc(COCCCC23CC4CC(CC(C4)C2)C3)cc1-c1ccccc1C)C(=O)[O-].[Li+] [Example 599]
% inhibition of farnesyltransferase at 1 × 10^-8 M (1 × 10^-8 M (Table 4)): 86%

% inhibition of farnesyltransferase at 1 × 10^-6 M: 59%
Structure (SMILES): CSCC[C@H](NC(=O)c1ccc(CNc2ccccc2N2CCCCC2)cc1-c1ccccc1)C(=O)O [Example 673]

% inhibition of farnesyltransferase at 1 × 10^-6 M: 64%
Structure (SMILES): CSCC[C@H](NC(=O)c1ccc(CN(C)C(C)(C)Cc2ccccc2)cc1-c1ccccc1C)C(=O)O [Example 982]

Structure (SMILES): CSCC[C@H](NC(=O)c1ccc(OCCC2CCCCC2)cc1-c1ccccc1C)C(=O)[O-].[Li+] [Example 552]
% inhibition of farnesyltransferase at 1 × 10^-6 M: 88%

% inhibition of farnesyltransferase at 1 × 10^-7 M (1 × 10^-7 M (Table 3)): 93%
Structure (SMILES): CSCC[C@H](NC(=O)c1ccc(COCCCCC2CCCCC2)cc1-c1ccccc1C)C(=O)O [Example 600]

% inhibition of farnesyltransferase at 1 × 10^-6 M: 97%
Structure (SMILES): CSCC[C@H](NC(=O)c1ccc(OC/C=C(\C)CCC=C(C)C)cc1-c1ccccc1C)C(=O)O [Example 546]

inhibition at 1 µM: 98%
Structure (SMILES): Cc1ccccc1-c1cc(CN(C(C)C)C(C)(C)CC2CCCCC2)ccc1C(=O)N[C@@H](CCS(C)(=O)=O)C(=O)O [Example 322]
